Measured values from patent US9682114B2, “Plant extracts of Ptaeroxylon obliquum nand compounds having antimicrobial and antihelminthic activity” (UNIVERSITY OF PRETORIA, priority 2013, dated 2017).
≈ marks a conversion by molar mass, not a printed value. Read-outs that look alike come from different tables or passages of the source.

Tests used:
[1] = tested on: Haemonchus contortus (larva); assay: Larval development test (LDT); assay type: cell-based
Procedure: (§1) The extract and isolated compound were tested for activity on Haemonchus contortus.

[2] = tested on: Enterococcus faecalis ATCC 29212; assay: Serial microplate dilution MIC, bacteria; assay type: cell-based; settings: ATCC29212
Procedure: (§2) The serial microplate dilution method developed by Eloff (1998) was used to determine the minimal inhibitory concentration (MIC) of the crude extracts, fractions and isolated compounds from P. obliquum against several bacterial strains. The antimicrobial activity was determined against the bacterial strains Escherichia coli ATTC 27853, Escherichia coli ATTC 6739, Enterococcus faecalis ATCC 29212, Pseudomonas aeruginosa ATCC 25922, Staphylococcus aureus ATCC 6538, Staphylococcus aureus ATCC 29213, Salmonella typhi ATCC 14028.

[3] = tested on: Pseudomonas aeruginosa ATCC 25922; assay: Serial microplate dilution MIC, bacteria; assay type: cell-based; settings: ATCC25922
Procedure: as §2

[4] = tested on: Salmonella typhi ATCC 14028; assay: Serial microplate dilution MIC, bacteria; assay type: cell-based; settings: Salmonella enterica
Procedure: as §2

[5] = tested on: Escherichia coli ATTC 6739; assay: Serial microplate dilution MIC, bacteria; assay type: cell-based; settings: ATTC6739
Procedure: as §2

[6] = tested on: Staphylococcus aureus ATCC 6538; assay: Serial microplate dilution MIC, bacteria; assay type: cell-based; settings: ATCC6538
Procedure: as §2

[7] = tested on: Staphylococcus aureus ATCC 29213; assay: Serial microplate dilution MIC, bacteria; assay type: cell-based; settings: ATCC29213
Procedure: as §2

[8] = tested on: Escherichia coli ATTC 27853; assay: Serial microplate dilution MIC, bacteria; assay type: cell-based; settings: ATTC27853
Procedure: as §2

mouse fibroblast cells = settings: 5 days
Text: (§5) The MTT assay was used to determine the cytotoxicity of dried acetone extracts of H. caffrum (leaves); P. obliquum (leaves); R. melanophloeos (leaves) and S. birrea (stem bark) reconstituted in dimethyl sulphoxide (DMSO) against Mouse fibroblast cells (obtained from the Department of Plant Science, Faculty of Natural and Agricultural Sciences, University of Pretoria, South Africa).
(§6) MTT (yellow) is reduced into a formazan (purple) by viable cells. The colour intensity of the formazan produced, which is directly proportional to the number of viable cells, is measured using a spectrophotometer (Mosmann, 1983; Shai, 2007).
(§7) Cells were maintained in minimal essential medium (MEM) (Highveld Biological, South Africa) supplemented with 0.1% gentamicin (Virbac) and 5% foetal calf serum (Adcock-lngram). […] Dried crude plant extracts (100 mg) were reconstituted in 1 ml of DMSO and serial 10-fold dilutions of each extract were prepared in growth medium. The growth medium on sub-confluent monolayer cells grown overnight in microtitre plates was removed and cells were exposed to 200 μl of the extracts at different concentrations and incubated again at 37° C. for 5 days. Viability of cells was determined using the tetrazolium-based colorimetric assay (MTT assay) described by Mossmann (1983). Before the addition of MTT, the extract-containing medium on the cells was replaced with fresh culture medium to exclude reduction of the tetrazolium compound by plant extracts. The assay is based on mitochondrial dehydrogenase activity which is assessed by the reductive cleavage of the tetrazolium salt MTT [3-(4.5-dimethylthiazolyl)2.5-diphenyltetrazolium bromide] due to the succinic dehydrogenase present in living cells to yield a purple formazan dye. The cells were incubated with 30 μl of 5 mg/ml MTT in phosphate-buffered saline (PBS) for four hours. Thereafter, medium was removed and cells washed with PBS. DMSO (50 μl) was added to the cells and absorbance was measured using a Versamax microplate reader at 570 nm. Berberine chloride (Sigma) was used as a positive control, wells containing only cells acted as the negative control and a solvent control was also included. The percentage cell viability following the addition of varying concentrations of the extracts in relation to controls was calculated. The LC50 values were calculated (using SoftMax Pro4.8 Software) as the concentration of plant extracts resulting in 50 percent reduction of absorbance compared to untreated cells. Tests were carried out in quadruplicate and each experiment was repeated three times.

Mycobacterium bovis = assay: microbe, parasite or virus in culture; assay type: cell-based
Aspergillus parasiticus = assay: MIC, plant pathogenic fungi; assay type: cell-based
Procedure: (§3) The microplate dilution method (Eloff, 1998), with slight modification (Masoko et al., 2005) was used to test the antifungal activity of the crude extracts, fractions and isolated compounds from P. obliquum. Clinical isolates of the four opportunistic fungal strains Aspergillus fumigatus, Candida albicans, Crytococcus neoformans and Candida albicans ATCC 10231 were used to test for antifungal activity.
(§4) The antifungal activity of the crude extracts and the five fractions were also tested against 10 plant pathogenic fungi (Aspergillus niger, Aspergillus parasiticus, Colletotrichum gloeosporioides, Fusarium oxysporum, Penicillium digitum, Penicillium expansum, Penicillium italicum, Penicillium janthinellum, Trichoderma harzianum and Rhizoctonia solani).

Penicillium janthinellum = assay: MIC, plant pathogenic fungi; assay type: cell-based
Procedure: as §3, §4

Rhizoctonia solani = assay: MIC, plant pathogenic fungi; assay type: cell-based
Procedure: as §3, §4

Penicillium italicum = assay: MIC, plant pathogenic fungi; assay type: cell-based
Procedure: as §3, §4

Penicillium digitum = assay: MIC, plant pathogenic fungi; assay type: cell-based
Procedure: as §3, §4

[9] = tested on: Colletotrichum gloeosporioides; assay: MIC, plant pathogenic fungi; assay type: cell-based
Procedure: as §3, §4

Penicillium expansum = assay: MIC, plant pathogenic fungi; assay type: cell-based
Procedure: as §3, §4

Aspergillus niger = assay: MIC, plant pathogenic fungi; assay type: cell-based
Procedure: as §3, §4

Fusarium oxysporum = assay: MIC, plant pathogenic fungi; assay type: cell-based
Procedure: as §3, §4

Trichoderma harzianum = assay: MIC, plant pathogenic fungi; assay type: cell-based
Procedure: as §3, §4

Mycobacterium aurum = assay: Serial microplate dilution MIC, mycobacteria; assay type: cell-based; settings: Mycolicibacterium aurum
[10] = tested on: Candida albicans standard strain (ATCC 10231) and clinical isolates; assay: Broth micro-dilution assay, minimal inhibitory concentration (MIC); assay type: cell-based; settings: for MIC: Candida albicans, read-out: MIC; for Selectivity index (SI): LC50 against mouse fibroblast cells/MIC
in vitro [11] = settings: mouse, LC50 (cytotoxicity)
Text: as §5, §6, §7

Mycobacterium fortuitum = assay: Serial microplate dilution MIC, mycobacteria; assay type: cell-based
[12] = tested on: bacterial strains (E. coli, E. faecalis, P. aeruginosa, S. aureus, S. typhi); assay: Antibacterial MIC, summary statements over all bacterial strains tested; assay type: cell-based; settings: read-out: MIC (bacteria tested, summary)
Procedure: as §2

Mycobacterium smegmatis = assay: Serial microplate dilution MIC, mycobacteria; assay type: cell-based
in vitro [13] = assay: in vitro
[14] = tested on: Candida albicans (clinical isolate); assay: Microplate dilution MIC, opportunistic fungi (Example 9); assay type: cell-based
Text: as §3

Aspergillus fumigatus = assay: as above; assay type: cell-based
Text: as §3

Cryptococcus neoformans = assay: as above; assay type: cell-based
Text: as §3

[15] = tested on: Candida albicans ATCC 10231; assay: as above; assay type: cell-based; settings: ATCC10231
Text: as §3

[16] = tested on: Haemonchus contortus (egg); assay: Egg hatch assay (EHA); assay type: cell-based; settings: egg of Haemonchus contortus; read-out: Antihelminthic activity EC50 (mg/ml) EDA
Procedure: as §1

in vitro [17] = settings: human

CC(=O)OCC1=CCc2c(cc(O)c3c(=O)cc(C)oc23)OC1 [Compound 2, 8,11-Dihydro-5-hydroxy-12-hydroxymethyl-2-methyl-4H-pyrano[2,3-g][1]benzoxepin-4-one 12-O-acetate]
EC50 ([1]; Haemonchus contortus larvae, read-out: EC50 against larvae): 0.0956 mg/mL (≈ 302 µM)
EC50 ([1]; larva of Haemonchus contortus, read-out: Antihelminthic activity EC50 (mg/ml) LDT): 0.0956 ± 0.002 mg/mL (≈ 302 µM)
MIC [2]: > 250 µg/mL
MIC [3]: 31.5 µg/mL (≈ 99.6 µM)
MIC [4]: 31.5 µg/mL (≈ 99.6 µM)
MIC [5]: 80 µg/mL (≈ 253 µM)
MIC [6]: 31.5 µg/mL (≈ 99.6 µM)
MIC [7]: 31.5 µg/mL (≈ 99.6 µM)
MIC [8]: 80 µg/mL (≈ 253 µM)
LC50 (cytotoxicity) (mouse fibroblast cells): 7.23 µg/mL (≈ 22.9 µM)
MIC (Mycobacterium bovis; Mycobacterium bovis): 31.5 µg/mL (≈ 99.6 µM)
MIC (Mycobacterium bovis; Mycobacterium tuberculosis variant bovis): 31.5 µg/mL (≈ 99.6 µM)
MIC (Aspergillus parasiticus): 250 µg/mL (≈ 790 µM)
MIC (Penicillium janthinellum): 63 µg/mL (≈ 199 µM)
MIC (Rhizoctonia solani): 8 µg/mL (≈ 25.3 µM)
MIC (Rhizoctonia solani; R. solani, read-out: MIC): 8 µg/mL (≈ 25.3 µM)
MIC (Penicillium italicum): 125 µg/mL (≈ 395 µM)
MIC (Penicillium digitum): 32 µg/mL (≈ 101 µM)
MIC [9]: 32 µg/mL (≈ 101 µM)
MIC (Penicillium expansum): 32 µg/mL (≈ 101 µM)
MIC (Aspergillus niger): 32 µg/mL (≈ 101 µM)
MIC (Fusarium oxysporum): 63 µg/mL (≈ 199 µM)
MIC (Trichoderma harzianum): 16 µg/mL (≈ 50.6 µM)
MIC (Trichoderma harzianum; T. harzianum, read-out: MIC): 16 µg/mL (≈ 50.6 µM)
MIC (Mycobacterium aurum): 125 µg/mL (≈ 395 µM)
MIC ([10]; 12 h, 12 h incubation, C. albicans 1051255): > 250 µg/mL
MIC ([10]; 12 h, 12 h incubation, C. albicans 1051604): > 250 µg/mL
MIC ([10]; 12 h, 12 h incubation, C. albicans 1051608): 8 µg/mL (≈ 25.3 µM)
MIC ([10]; 12 h, 12 h incubation, C. albicans ATCC 10231): 4 µg/mL (≈ 12.6 µM)
MIC ([10]; 12 h, 12 h incubation, C. albicans M0824): > 250 µg/mL
MIC ([10]; 12 h, 12 h incubation, C. albicans M0825): > 250 µg/mL
MIC ([10]; 12 h, 12 h incubation, C. albicans M0826): > 250 µg/mL
MIC ([10]; 24 h, 24 h incubation, C. albicans 1051255): > 250 µg/mL
MIC ([10]; 24 h, 24 h incubation, C. albicans 1051604): > 250 µg/mL
MIC ([10]; 24 h, 24 h incubation, C. albicans 1051608): 250 µg/mL (≈ 790 µM)
MIC ([10]; 24 h, 24 h incubation, C. albicans ATCC 10231): 4 µg/mL (≈ 12.6 µM)
MIC ([10]; 24 h, 24 h incubation, C. albicans M0824): > 250 µg/mL
MIC ([10]; 24 h, 24 h incubation, C. albicans M0825): > 250 µg/mL
MIC ([10]; 24 h, 24 h incubation, C. albicans M0826): > 250 µg/mL
MIC ([10]; C. albicans ATCC 10231, mean value): 4 µg/mL (≈ 12.6 µM)
Selectivity index (SI) ([10]; C. albicans 1051255): <0.029
Selectivity index (SI) ([10]; C. albicans 1051604): <0.029
Selectivity index (SI) ([10]; C. albicans 1051608): 0.029
Selectivity index (SI) ([10]; C. albicans ATCC 10231): 1.808
Selectivity index (SI) ([10]; C. albicans M0824): <0.029
Selectivity index (SI) ([10]; C. albicans M0825): <0.029
Selectivity index (SI) ([10]; C. albicans M0826): <0.029
Selectivity index (SI) Average ([10]; average over ATCC 10231 and clinical isolates): 0.283
CC50 at 5 days (in vitro [11]): 7.23 µg/mL (≈ 22.9 µM)
MIC (Mycobacterium fortuitum; Mycobacterium fortuitum): 8 µg/mL (≈ 25.3 µM)
MIC (Mycobacterium fortuitum; Mycolicibacterium fortuitum, M. fortuitum, read-out: MIC): 8 µg/mL (≈ 25.3 µM)
MIC [12]: 31.5 µg/mL (≈ 99.6 µM)
MIC (Mycobacterium smegmatis; Mycobacterium smegmatis): 16 µg/mL (≈ 50.6 µM)
MIC (Mycobacterium smegmatis; Mycolicibacterium smegmatis, M. smegmatis, read-out: MIC): 16 µg/mL (≈ 50.6 µM)
CC50 (in vitro [13]; monkey and human): > 200 µg/mL
MIC [14]: 62.5 µg/mL (≈ 198 µM)
MIC (Aspergillus fumigatus): 16 µg/mL (≈ 50.6 µM)
MIC (Cryptococcus neoformans): 8 µg/mL (≈ 25.3 µM)
MIC [15]: 2 µg/mL (≈ 6.32 µM)
EC50 [16]: 0.224 ± 0.0286 mg/mL (≈ 707 µM)

COc1cccc2c1C(=O)c1c(O)c3c(c(O)c1C2=O)C[C@@](O)(C(=O)CO)C[C@@H]3O[C@H]1C[C@H](N)[C@H](O)[C@H](C)O1 [doxorubicin, reference compound]
CC50 (in vitro [13]; monkey): 2510 ± 203 nM
CC50 (in vitro [17]): 116 ± 17.4 nM
